Experiment [1] concerns the target T1, human GCGR (Homo sapiens, UniProt P47871).
T1 construct: expressed in transfected cells; kept under Blasticidin and Hygromycin selection
The experiment can be described thus: cAMP activity assay, cells expressing human GCGR. The class given is cell-based. Conditions: for EC50: cAMP production, cells expressing human GCGR, assay buffer with or without 20% human serum (not stated which), read-out: GCGR EC50 human; for hGCGR/hGLP1R (hTone): ratio of human GCGR EC50 to human GLP1R EC50. As to the method: (§1) Activity of the peptides at the Glucagon receptor (GCGR) and GLP-1 receptor (GLP1R) was measured in a cAMP activity assay. Peptides were dissolved in 100% DMSO and serially diluted to generate 10 point titrations. The peptide solutions were then transferred into 384-well assay plates (150 nL/well). […] Production of cAMP was determined using […] kits (DiscoverX) following manufacturer protocol. The plates were incubated for overnight at room temperature in the dark. Luminescence was measured using an EnVision Multilabel plate reader (Perkin Elmer). Native GLP-1 and Glucagon (Bachem) are used as control peptides. EC50 values were calculated using uses a 4 parameter logistic fit based on the Levenberg-Marquardt algorithm.
(Cyclic AMP is a second messenger, typically raised through Gs and lowered through Gi signalling.)

The target of experiment [2] is T2, human GLP1R (Homo sapiens, UniProt P43220).
T2 construct: expressed in transfected cells; kept under Blasticidin and Hygromycin selection
T2 sequence (P43220 24-463): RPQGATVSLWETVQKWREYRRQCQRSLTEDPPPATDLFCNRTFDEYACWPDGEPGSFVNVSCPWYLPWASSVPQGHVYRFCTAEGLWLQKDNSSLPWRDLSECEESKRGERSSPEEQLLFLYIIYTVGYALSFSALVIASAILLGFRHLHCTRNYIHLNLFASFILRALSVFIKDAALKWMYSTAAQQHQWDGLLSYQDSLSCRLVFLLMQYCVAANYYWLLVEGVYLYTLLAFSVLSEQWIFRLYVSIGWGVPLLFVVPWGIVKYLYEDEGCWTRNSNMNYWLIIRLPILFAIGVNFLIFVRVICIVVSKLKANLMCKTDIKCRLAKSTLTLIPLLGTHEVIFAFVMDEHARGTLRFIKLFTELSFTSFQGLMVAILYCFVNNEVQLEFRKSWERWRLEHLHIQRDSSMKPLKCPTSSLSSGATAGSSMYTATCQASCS
Description: cAMP activity assay, cells expressing human GLP1R. Format: cell-based. The note with it: cAMP production, assay buffer with or without 20% human serum (not stated which). On the procedure: as §1

The results in this text go back to patent US11492385B2, “Long-acting co-agonists of the glucagon and GLP-1 receptors” (Merck Sharp & Dohme Corp., priority 2015, dated 2022).

Starred links: 1 amine or outer side, 2 acyl side, 3 side chain; linkers in the order of their positions; H or OH if unused. Non-standard residues stand in square brackets, D forms with d. Residues, ends and D or L forms follow the SMILES beside them. Groups on a side chain read outwards from the residue. *: point of attachment. C20 diacid = O=C(O)CCCCCCCCCCCCCCCCCCC(=O)*; C19 diacid = O=C(O)CCCCCCCCCCCCCCCCCC(=O)*; C18 diacid = O=C(O)CCCCCCCCCCCCCCCCC(=O)*; C16 diacid = O=C(O)CCCCCCCCCCCCCCC(=O)*; γGlu = O=C(O)[C@H](CCC(=O)[*:2])N[*:1]; Met(O2) = CS(=O)(=O)CC[C@H](N)C(=O)O; αMeD = C[C@](N)(CC(=O)O)C(=O)O; αMeL = CC(C)C[C@](C)(N)C(=O)O; AEEA = NCCOCCOCC(=O)O; Aib = CC(C)(N)C(=O)O

T1 sequence (P47871 26-477): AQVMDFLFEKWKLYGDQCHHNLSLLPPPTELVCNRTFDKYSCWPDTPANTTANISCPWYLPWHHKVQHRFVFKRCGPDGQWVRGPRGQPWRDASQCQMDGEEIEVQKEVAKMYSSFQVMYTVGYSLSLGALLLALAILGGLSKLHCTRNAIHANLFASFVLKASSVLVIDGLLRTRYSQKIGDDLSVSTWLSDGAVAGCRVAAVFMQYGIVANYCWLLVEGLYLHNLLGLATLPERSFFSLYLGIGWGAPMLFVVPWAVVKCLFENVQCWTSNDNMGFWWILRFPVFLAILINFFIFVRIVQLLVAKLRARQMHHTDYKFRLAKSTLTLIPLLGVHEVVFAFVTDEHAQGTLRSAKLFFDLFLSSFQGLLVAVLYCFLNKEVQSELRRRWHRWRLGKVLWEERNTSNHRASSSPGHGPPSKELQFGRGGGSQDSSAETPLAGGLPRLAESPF

As a reminder, the EC50 is the concentration giving half of the maximal effect. In the case of `CC(C)C[C@H](NC(=O)[C@H](Cc1ccc(O)cc1)NC(=O)[C@H](CCCCN)NC(=O)[C@H](CO)NC(=O)[C@H](Cc1ccc(O)cc1)NC(=O)[C@H](CC(=O)O)NC(=O)[C@H](CO)NC(=O)[C@@H](NC(=O)[C@H](Cc1ccccc1)NC(=O)[C@@H](NC(=O)CNC(=O)[C@H](CCC(N)=O)NC(=O)C(C)(C)NC(=O)[C@@H](N)Cc1c[nH]cn1)[C@@H](C)O)[C@@H](C)O)C(=O)N[C@@H](CC(=O)O)C(=O)N[C@@H](C)C(=O)N[C@@H](CCCNC(=N)N)C(=O)N[C@@H](C)C(=O)N[C@@H](C)C(=O)N[C@@H](CCCCNC(=O)COCCOCCNC(=O)COCCOCCNC(=O)CC[C@H](NC(=O)CCCCCCCCCCCCCCCCCCC(=O)O)C(=O)O)C(=O)N[C@@H](CC(=O)O)C(=O)N[C@@H](Cc1ccccc1)C(=O)N[C@H](C(=O)N[C@@H](CCC(N)=O)C(=O)N[C@@H](Cc1c[nH]c2ccccc12)C(=O)N[C@@H](CC(C)C)C(=O)N[C@@H](CCS(C)(=O)=O)C(=O)N[C@@H](CC(=O)O)C(=O)N[C@H](C(N)=O)[C@@H](C)O)C(C)C` [compound 43] (H-H[Aib]QGTFTSDYSKYLDARAAK([AEEA-AEEA-γGlu-C20 diacid])DFVQWL[Met(O2)]DT-NH2; N-terminus assumed), in experiment [1], the EC50 amounted to 920 pM and the “hGCGR/hGLP1R (hTone)” value was 1.3. In addition, in experiment [2], the response was half-maximal at 690 pM (EC50).

For the molecule `CC(C)C[C@H](NC(=O)[C@H](Cc1ccc(O)cc1)NC(=O)[C@H](CCCCN)NC(=O)[C@H](CO)NC(=O)[C@H](CCCCNC(=O)COCCOCCNC(=O)COCCOCCNC(=O)CC[C@H](NC(=O)CCCCCCCCCCCCCCCCC(=O)O)C(=O)O)NC(=O)[C@H](CC(=O)O)NC(=O)[C@H](CO)NC(=O)[C@@H](NC(=O)[C@H](Cc1ccccc1)NC(=O)[C@@H](NC(=O)CNC(=O)[C@H](CCC(N)=O)NC(=O)[C@@H](CO)NC(=O)[C@@H](N)Cc1c[nH]cn1)[C@@H](C)O)[C@@H](C)O)C(=O)N[C@@H](CC(=O)O)C(=O)N[C@@H](C)C(=O)N[C@@H](CCCNC(=N)N)C(=O)N[C@@H](C)C(=O)N[C@@H](C)C(=O)N[C@@H](CCC(N)=O)C(=O)N[C@@H](CC(=O)O)C(=O)N[C@@H](Cc1ccccc1)C(=O)N[C@H](C(=O)N[C@@H](CCC(N)=O)C(=O)N[C@@H](Cc1c[nH]c2ccccc12)C(=O)N[C@@H](CC(C)C)C(=O)N[C@@H](CC(C)C)C(=O)N[C@@H](CC(=O)O)C(=O)N[C@H](C(N)=O)[C@@H](C)O)C(C)C` [compound 6] (H-H[dS]QGTFTSDK([AEEA-AEEA-γGlu-C18 diacid])SKYLDARAAQDFVQWLLDT-NH2), in experiment [1], the EC50 worked out at 1700 pM and the “hGCGR/hGLP1R (hTone)” value is given as 1.24. This molecule also had an EC50 in experiment [2] of 1370 pM.

On to `CC(C)C[C@H](NC(=O)[C@H](Cc1ccc(O)cc1)NC(=O)[C@H](CCCCN)NC(=O)[C@H](CO)NC(=O)[C@H](Cc1ccc(O)cc1)NC(=O)[C@H](CC(=O)O)NC(=O)[C@H](CO)NC(=O)[C@@H](NC(=O)[C@H](Cc1ccccc1)NC(=O)[C@@H](NC(=O)CNC(=O)[C@H](CCC(N)=O)NC(=O)C(C)(C)NC(=O)[C@@H](N)Cc1c[nH]cn1)[C@@H](C)O)[C@@H](C)O)C(=O)N[C@@H](CC(=O)O)C(=O)N[C@@H](C)C(=O)N[C@@H](CCCNC(=N)N)C(=O)N[C@@H](C)C(=O)N[C@@H](C)C(=O)N[C@@H](CCCCNC(=O)COCCOCCNC(=O)COCCOCCNC(=O)CC[C@H](NC(=O)CCCCCCCCCCCCCCCCC(=O)O)C(=O)O)C(=O)N[C@@H](CC(=O)O)C(=O)N[C@@H](Cc1ccccc1)C(=O)N[C@H](C(=O)N[C@@H](CCC(N)=O)C(=O)N[C@@H](Cc1c[nH]c2ccccc12)C(=O)N[C@@H](CC(C)C)C(=O)N[C@@H](CCS(C)(=O)=O)C(=O)N[C@@](C)(CC(=O)O)C(=O)N[C@H](C(N)=O)[C@@H](C)O)C(C)C` [compound 74] (H-H[Aib]QGTFTSDYSKYLDARAAK([AEEA-AEEA-γGlu-C18 diacid])DFVQWL[Met(O2)][αMeD]T-NH2), for which, in experiment [1], the EC50 came to 860 pM and the “hGCGR/hGLP1R (hTone)” value came to 0.6. In addition, a half-maximal effect in experiment [2] (EC50) was put at 1390 pM.

Take `CC(C)C[C@H](NC(=O)[C@H](Cc1ccc(O)cc1)NC(=O)[C@H](CCCCN)NC(=O)[C@H](CO)NC(=O)[C@H](Cc1ccc(O)cc1)NC(=O)[C@H](CC(=O)O)NC(=O)[C@H](CO)NC(=O)[C@@H](NC(=O)[C@H](Cc1ccccc1)NC(=O)[C@@H](NC(=O)CNC(=O)[C@H](CCC(N)=O)NC(=O)C(C)(C)NC(=O)[C@@H](N)Cc1c[nH]cn1)[C@@H](C)O)[C@@H](C)O)C(=O)N[C@@H](CC(=O)O)C(=O)N[C@@H](C)C(=O)N[C@@H](CCCNC(=N)N)C(=O)N[C@@H](C)C(=O)N[C@@H](C)C(=O)N[C@@H](CCCCNC(=O)COCCOCCNC(=O)COCCOCCNC(=O)CC[C@H](NC(=O)CCCCCCCCCCCCCCCCCC(=O)O)C(=O)O)C(=O)N[C@@H](CC(=O)O)C(=O)N[C@@H](Cc1ccccc1)C(=O)N[C@H](C(=O)N[C@@H](CCC(N)=O)C(=O)N[C@@H](Cc1c[nH]c2ccccc12)C(=O)N[C@@H](CC(C)C)C(=O)N[C@@H](CCS(C)(=O)=O)C(=O)N[C@@H](CC(=O)O)C(=O)N[C@H](C(N)=O)[C@@H](C)O)C(C)C` [compound 45] (H-H[Aib]QGTFTSDYSKYLDARAAK([AEEA-AEEA-γGlu-C19 diacid])DFVQWL[Met(O2)]DT-NH2): the EC50 in experiment [1] turned out to be 160 pM; in experiment [2] it was 120 pM. For the same molecule, the “hGCGR/hGLP1R (hTone)” value in experiment [1] was 1.30.

Turning to `CC(C)C[C@H](NC(=O)[C@H](Cc1c[nH]c2ccccc12)NC(=O)[C@H](CCC(N)=O)NC(=O)[C@@H](NC(=O)[C@H](Cc1ccccc1)NC(=O)[C@H](CC(=O)O)NC(=O)[C@H](CCCCNC(=O)COCCOCCNC(=O)COCCOCCNC(=O)CC[C@H](NC(=O)CCCCCCCCCCCCCCC(=O)O)C(=O)O)NC(=O)[C@H](C)NC(=O)[C@H](C)NC(=O)[C@H](CCCNC(=N)N)NC(=O)[C@H](C)NC(=O)[C@H](CC(=O)O)NC(=O)[C@](C)(CC(C)C)NC(=O)[C@H](Cc1ccc(O)cc1)NC(=O)[C@H](CCCCN)NC(=O)[C@H](CO)NC(=O)[C@H](Cc1ccc(O)cc1)NC(=O)[C@H](CC(=O)O)NC(=O)[C@H](CO)NC(=O)[C@@H](NC(=O)[C@H](Cc1ccccc1)NC(=O)[C@@H](NC(=O)CNC(=O)[C@H](CCC(N)=O)NC(=O)C(C)(C)NC(=O)[C@@H](N)Cc1c[nH]cn1)[C@@H](C)O)[C@@H](C)O)C(C)C)C(=O)N[C@@H](CCS(C)(=O)=O)C(=O)N[C@@H](CC(=O)O)C(=O)N[C@H](C(N)=O)[C@@H](C)O` [compound 38] (H-H[Aib]QGTFTSDYSKY[αMeL]DARAAK([AEEA-AEEA-γGlu-C16 diacid])DFVQWL[Met(O2)]DT-NH2), the EC50 in experiment [1] is 460 pM; in experiment [2], 100 pM. In experiment [1], the “hGCGR/hGLP1R (hTone)” value is given as 4.54.
